Key:
[1] = In vitro release from single-layered CAPP films; type: physicochemical; conditions: for release rate compared with Rhodamine dye: from 0.1 mm thick CAPP films
Protocol: Next, drug release from single-layered CAPP films of 0.1, 0.2, 0.3, and 0.4 mm thickness was quantified. Drug release was measured by encapsulating Rhodamine fluorescent dye within the films and closely matched the erosion times reported above. Complete release from 0.1 mm thick films occurred after ˜18 hrs (FIG. 4A). Complete release from 0.2 mm thick films occurred after ˜36 hrs (FIG. 4A). Complete release from 0.3 mm thick films occurred after ˜60 hrs (FIG. 4A). Complete release from 0.4 mm thick films occurred after ˜78 hrs (FIG. 4A). Importantly, release of 5HT2A agonists from 0.1 mm thick CAPP films was also measured, since 0.1 mm thick films are used to encapsulate drug in the multilayered films.

[2] = In vitro release kinetics from multilayered CAPP films (Rhodamine as model drug); type: physicochemical
Description: The layering strategy (i.e., alternating 0.1 mm and 0.4 mm films) was chosen based on the results in FIGS. 4A-4B showing that 0.1 mm films erode in ˜24 hrs while 0.4 mm films erode in ˜70-80 hrs. Additionally, each layer was engineered to degrade by either bulk or surface erosion based on the function of that particular layer. The drug-loaded, 0.1 mm thick layers should degrade via bulk erosion such that the drug is rapidly released from these layers in a bolus. However, the “blank” 0.4 mm layers should erode via surface erosion to ensure gradual degradation of the blank layer from “top-to-bottom” to maintain ordered pulses of release over time. Therefore, the absorption of water into polymeric films composed of a range of CAP:P ratios was examined, since bulk erosion occurs in materials where the rate of water absorption is greater than the degradation rate. By contrast, surface erosion occurs in materials where the rate of degradation is greater than the rate of water absorption into the material. […] Therefore, multilayered films with 0.1 mm drug-loaded layers composed of 70:30 (bulk-eroding) CAPP films and 0.4 mm blank layers composed of 90:10 (surface eroding) CAPP films were produced. Lastly, the erosion time for CAPP films of CAP:P ratios varying from 70:30-90:10 was examined to inform the construction of multilayer devices that are to be composed of both 70:30 and 90:10 CAPP films. […] As film thickness increases, erosion time of the films increases proportionally.
We constructed multilayer CAPP films of alternating 0.1 mm bulk eroding, drug-loaded layers and 0.4 mm surface eroding, blank layers and observed drug release kinetics from these films using Rhodamine as a model drug. […] However, in these preliminary results the third drug pulse is not obvious and the gaps between pulses have some variability. A new layering design was implemented to counter these shortcomings; including adding two “blank” layers between each drug-loaded film, as well as having “blank” layers on the bottom of the device to maintain device structure through the third drug pulse.

5HT2A receptor = target: T1, 5HT2A receptor (Homo sapiens, UniProt P28223); test: In vitro bioactivity: calcium flux (Fluo-8) in 5HT2A serotonin receptor cells; type: cell-based; conditions: 5 μM, 1 hr treatment, versus PBS control
T1 construct: host or cells: Chem-1 cells (parental control HTSCHEM-1RTA)
T1 sequence (P28223 whole entry): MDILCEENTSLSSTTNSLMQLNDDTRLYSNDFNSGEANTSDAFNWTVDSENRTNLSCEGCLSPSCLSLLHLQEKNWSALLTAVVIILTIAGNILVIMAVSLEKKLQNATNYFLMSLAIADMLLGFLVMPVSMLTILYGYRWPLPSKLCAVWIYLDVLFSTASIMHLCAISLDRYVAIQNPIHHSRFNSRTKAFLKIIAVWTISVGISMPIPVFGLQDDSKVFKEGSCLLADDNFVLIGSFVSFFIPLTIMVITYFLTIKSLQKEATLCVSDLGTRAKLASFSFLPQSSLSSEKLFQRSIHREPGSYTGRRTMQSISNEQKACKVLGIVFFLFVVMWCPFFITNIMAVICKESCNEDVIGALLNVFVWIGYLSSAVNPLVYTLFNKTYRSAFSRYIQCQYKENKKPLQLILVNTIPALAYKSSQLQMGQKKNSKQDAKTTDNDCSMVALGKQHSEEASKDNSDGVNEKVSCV
Protocol: Briefly, 5HT2A serotonin receptor cells (Millipore Sigma, HTS082RTA) and chem-1 parental control cells (Millipore Sigma, HTSCHEM-1RTA) were seeded in 96 well plates (5000 cells-100 μl/well of 50,000 cells/ml solution) and allowed to adhere overnight. […] After 1 hr, Fluo-8 green dye solution (Abcam, ab112129) was added to the cells, incubated 30 min at 37° C., and then incubated for 30 minutes at room temperature, followed by fluorescence measurements on a microplate reader.

[3] = Pilot pharmacokinetics of DOI from subcutaneously implanted 0.1 mm CAPP films; type: in vivo; conditions: DOI-loaded 0.1 mm CAPP film, subcutaneous, CD-1 mice
Description: Single-layered films loaded with DOI and blank single-layered films have been constructed. These films were sterilized and implanted subcutaneously in the dorsal flap of CD-1 mice in an initial pilot experiment. This pilot experiment enabled optimization of blood collection time points, ensure the ability to detect DOI with current bioanalytical techniques, and will inform the design of the rest of the in vivo studies. Briefly, films were implanted subcutaneously followed by blood and organ collection at 8, 16, and 24 hrs to monitor blood pharmacokinetics of DOI released from the 0.1 mm thick CAPP films in vivo. […] The concentration of DOI in the blood of mice returned to baseline by 16 hrs and remained at baseline through 24 hrs. […] This pilot experiment was repeated to: 1) sample at earlier time points for better overall fidelity and 2) to also determine the concentration of DOI in major organs, particularly the brain. […] As expected based on the plasma pharmacokinetics, it was observed that the peak concentration of DOI in the brain, liver, and kidneys was ˜2-4 hrs (FIGS. 13C-13F). […] The release profile of the same dose of DOI from 0.4 mm thick films can also be measured, as can the release profile of DOI from multilayered CAPP films with three DOI-loaded 0.1 mm thick films separated by 0.4 mm thick blank films.

[4] = Pulsed delivery of DOI from subcutaneously implanted multilayer CAPP films coated with PSA; type: in vivo; conditions: seven-layer CAPP film, subcutaneous
Description: The multilayered CAPP films used for this study had seven layers, where layers 1, 4, and 7 were DOI-loaded 0.1 mm thick CAPP films at 70:30 CAP:P ratio and layers 2, 3, 5, and 6 were unloaded (Blank) 0.4 mm thick CAPP films at 90:10 CAP:P ratio. The layered devices were then coated on all sides but one (the top of layer 1) with the biocompatible polymer polysebacic acid (PSA). After implantation, the anticipated pulsed release schedule of DOI was observed, with three distinct DOI pulses where peak concentrations in the plasma occurred at ˜2, 12, and 24 hrs post-implantation.

[5] = Follow-up plasma and organ pharmacokinetics of DOI from subcutaneously implanted 0.1 mm CAPP films; type: in vivo, CD-1 mice; conditions: post-implantation of 0.1 mm thick CAPP films, subcutaneous
Description: Single-layered films loaded with DOI and blank single-layered films have been constructed. These films were sterilized and implanted subcutaneously in the dorsal flap of CD-1 mice in an initial pilot experiment. This pilot experiment enabled optimization of blood collection time points, ensure the ability to detect DOI with current bioanalytical techniques, and will inform the design of the rest of the in vivo studies. Briefly, films were implanted subcutaneously followed by blood and organ collection at 8, 16, and 24 hrs to monitor blood pharmacokinetics of DOI released from the 0.1 mm thick CAPP films in vivo. […] The concentration of DOI in the blood of mice returned to baseline by 16 hrs and remained at baseline through 24 hrs. […] This pilot experiment was repeated to: 1) sample at earlier time points for better overall fidelity and 2) to also determine the concentration of DOI in major organs, particularly the brain. […] As expected based on the plasma pharmacokinetics, it was observed that the peak concentration of DOI in the brain, liver, and kidneys was ˜2-4 hrs (FIGS. 13C-13F). DOI was cleared from the plasma as well as the brain, liver, and kidneys by ˜12 hrs post-implantation. The release profile of the same dose of DOI from 0.4 mm thick films can also be measured, as can the release profile of DOI from multilayered CAPP films with three DOI-loaded 0.1 mm thick films separated by 0.4 mm thick blank films.

[6] = multilayer film, alternating 0.1 mm drug-loaded and 0.4 mm blank layers

Structure (SMILES): CC(=O)Oc1cccc2[nH]cc(CCN(C)C)c12 [4-acetoxy DMT, O-acetylpsilocin]
- release rate compared with Rhodamine dye [1]: very similar rate

Structure (SMILES): CCN(CC)c1ccc2c(-c3ccccc3C(=O)O)c3ccc(=[N+](CC)CC)cc-3oc2c1 [Rhodamine, rhodamine B]
- time to complete release ([1]; from 0.1 mm thick single-layered CAPP film): ~18 h
- time to complete release ([1]; from 0.2 mm thick single-layered CAPP film): ~36 h
- time to complete release ([1]; from 0.3 mm thick single-layered CAPP film): ~60 h
- time to complete release ([1]; from 0.4 mm thick single-layered CAPP film): ~78 h
- time of peak of first drug pulse [2, 6]: 16 h
- time of peak of second drug pulse [2, 6]: 72 h
- time of peak of third drug pulse [2, 6]: ~120 h
- spacing between three intermittent drug pulses ([2]; second generation design, two blank layers between drug-loaded films and blank layers at bottom): ~70 h

Structure (SMILES): CCN(CC)C(=O)[C@@H]1C=C2c3cccc4c3c(cn4C(=O)C3CC3)C[C@H]2N(C)C1 [1cp-LSD, N1-(cyclopropylmethanoyl)-lysergic acid diethylamide]
- calcium flux downstream of 5HT2A receptor activation (5HT2A receptor): significant induction of calcium

Structure (SMILES): COc1cc(CC(C)N)c(OC)cc1I (stereo not drawn) [DOI, 2,5-dimethoxy-4-iodoamphetamine]
- detection in blood ([3]; 8 hrs post-implantation): consistently detected
- time at which blood concentration returned to baseline ([3]; remained at baseline through 24 hrs): ≤ 16 h
- calcium flux downstream of 5HT2A receptor activation (5HT2A receptor): significant induction of calcium
- release rate compared with Rhodamine dye [1]: very similar rate
- concentration profile in brain, liver, and kidneys [4]: matched the pulsed profile of the blood plasma
- time of peak plasma concentration, first pulse ([4]; post-implantation): ~2 h
- time of peak plasma concentration, second pulse ([4]; post-implantation): ~12 h
- time of peak plasma concentration, third pulse ([4]; post-implantation): ~24 h
- time by which cleared from plasma, brain, liver, and kidneys [5]: ~12 h
- time of peak concentration in brain, liver, and kidneys [5]: 2 to 4 h
- time of peak concentration in plasma [5]: 2 h
